Measured values taken from patent US10336739B2, “4-hydroxy-3-(heteroaryl)pyridine-2-one APJ agonists” (BRISTOL-MYERS SQUIBB COMPANY, priority 2015, dated 2019).

The molecules below were run against human APJ receptor (Homo sapiens (Human), UniProt P35414) (assay: Intracellular cAMP accumulation assay (APJ hcAMP, HTRF)). Conditions: HEK293 cells stably expressing human APJ receptor; inhibition of forskolin-mediated cAMP production; read-out: hAPJ cAMP EC50 (nM) Potency range.
Sequence of human APJ receptor (P35414 whole entry): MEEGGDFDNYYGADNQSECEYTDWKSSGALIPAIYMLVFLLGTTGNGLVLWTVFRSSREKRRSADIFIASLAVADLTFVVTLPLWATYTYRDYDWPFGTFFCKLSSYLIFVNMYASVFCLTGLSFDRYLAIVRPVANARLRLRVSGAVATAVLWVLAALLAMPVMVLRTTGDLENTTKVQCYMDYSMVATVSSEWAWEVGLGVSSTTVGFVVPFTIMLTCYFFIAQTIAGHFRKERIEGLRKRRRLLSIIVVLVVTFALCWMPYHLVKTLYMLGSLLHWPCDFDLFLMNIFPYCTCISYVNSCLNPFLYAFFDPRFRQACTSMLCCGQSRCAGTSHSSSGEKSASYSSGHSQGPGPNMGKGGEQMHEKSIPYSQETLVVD
Format: cell-based
Method in brief: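 HEK293 cells stably expressing human APJ, 5,000 per well, exposed to compound with […] IBMX and 2 μM forskolin for 30 minutes at room temperature. cAMP measured by HTRF after lysis and 60 min detection incubation. EC50 from sigmoidal variable-slope fits of inhibition of forskolin-induced cAMP, quantified against a cAMP standard curve.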
`COc1cccc(OC)c1-c1c(C2CCCC2)nc(O)c(-c2nnc(Cc3ccc(Cl)cn3)o2)c1O` [Example 238, 3-{5-[(5-chloropyridin-2-yl)methyl]-1,3,4-oxadiazol-2-yl}-6-cyclopentyl-5-(2,6-dimethoxyphenyl) pyridine-2,4-diol] showed an EC50 of 0.01 to 10 nM. In the case of `CCCCc1nc(O)c(-c2nnc(CC(=O)N(C)Cc3ccccc3)o2)c(O)c1-c1c(OC)cccc1OC` [Example 260, N-benzyl-2-{5-[6-butyl-5-(2,6-dimethoxyphenyl)-2,4-dihydroxy-pyridin-3-yl]-1,3,4-oxadiazol-2-yl}-N-methylacetamide], the EC50 is reported as 0.01 to 10 nM.

Same assay, conditions: HEK293 cells stably expressing human APJ receptor; inhibition of forskolin-mediated cAMP production; read-out: hAPJ cAMP EC50 Potency range
`CCCCc1nc(O)c(-c2nnc(COc3ccc(F)cc3)o2)c(O)c1-c1c(OC)cccc1OC` [Example 42, 6-butyl-5-(2,6-dimethoxyphenyl)-3-[5-(4-fluoro-phenoxymethyl)-1,3,4-oxadiazol-2-yl]pyridine-2,4-diol] showed an EC50 of 10 to 100 nM. Work on `CCCCc1nc(O)c(-c2nnc(Cc3ccc(Cl)nc3)o2)c(O)c1-c1c(OC)cccc1OC` [Example 30, 6-butyl-3-{5-[(6-chloropyridin-3-yl)methyl]-1,3,4-oxadiazol-2-yl}-5-(2,6-dimethoxyphenyl) pyridine-2,4-diol] yielded an EC50 of 0.01 to 10 nM. For `CCCCc1nc(O)c(-c2nnc(Cc3cncnc3)o2)c(O)c1-c1c(OC)cccc1OC` [Example 22, 6-butyl-5-(2,6-dimethoxyphenyl)-3-[5-(pyrimidin-5-ylmethyl)-1,3,4-oxadiazol-2-yl]pyridine-2,4-diol], the EC50 was 10 to 100 nM. For `CCCCc1nc(O)c(-c2nnc(CC(=O)NC(C)C)o2)c(O)c1-c1c(OC)cccc1OC` [Example 181, 2-{5-[6-butyl-5-(2,6-dimethoxyphenyl)-2,4-dihydroxypyridin-3-yl]-1,3,4-oxadiazol-2-yl}-N-(propan-2-yl)acetamide], the EC50 was 0.01 to 10 nM. `CCCCc1nc(O)c(-c2nnc(C(c3ccc(F)cc3)N(C)C)o2)c(O)c1-c1c(OC)cccc1OC` (stereo not drawn) [Example 88, 6-butyl-5-(2,6-dimethoxyphenyl)-3-{5-[(dimethylamino) (4-fluorophenyl)methyl]-1,3,4-oxadiazol-2-yl}pyridine-2,4-diol] gave an EC50 of 0.01 to 10 nM. Molecule `CCOCc1nc(O)c(-c2nnc(Cc3ccc(Cl)cc3F)o2)c(O)c1-c1c(OC)cccc1OC` [Example 123, 3-{5-[(4-chloro-2-fluorophenyl)methyl]-1,3,4-oxadiazol-2-yl}-5-(2,6-dimethoxyphenyl)-6-(ethoxymethyl) pyridine-2,4-diol] has an EC50 of 0.01 to 10 nM. `CCCCc1nc(O)c(-c2nnc(Cc3nnc(-c4ccccc4)[nH]3)o2)c(O)c1-c1c(OC)cccc1OC` [Example 66, 6-butyl-5-(2,6-dimethoxyphenyl)-3-{5-[(5-phenyl-4H-1,2,4-triazol-3-yl)methyl]-1,3,4-oxadiazol-2-yl}pyridine-2,4-diol] was tested, and the EC50 was 0.01 to 10 nM. In the case of `CCOCc1nc(O)c(-c2nnc(Cn3ccccc3=O)o2)c(O)c1-c1c(OC)cccc1OC` [Example 119, 1-({5-[5-(2,6-dimethoxyphenyl)-6-(ethoxymethyl)-2,4-dihydroxypyridin-3-yl]-1,3,4-oxadiazol-2-yl}methyl)-1,2-dihydropyridin-2-one], the EC50 is reported as 0.01 to 10 nM. In the case of `CCCCc1nc(O)c(-c2nnc(Cc3noc4ccccc34)o2)c(O)c1-c1c(OC)ccc(F)c1OC` (single isomer, unassigned; isomer 2) [Example 221, 3-[5-(1,2-benzoxazol-3-ylmethyl)-1,3,4-oxadiazol-2-yl]-6-butyl-5-(3-fluoro-2,6-dimethoxyphenyl) pyridine-2,4-diol (isomer 2)], the EC50 is reported as 0.01 to 10 nM. With `CCCCc1nc(O)c(-c2nnc(Cc3cncs3)o2)c(O)c1-c1c(OC)cccc1OC` [Example 49] the EC50 was 100 to 300 nM. `CCCCc1nc(O)c(-c2nnc(Cc3noc4ccccc34)o2)c(O)c1-c1ccccc1` [Example 138, 3-[5-(1,2-benzoxazol-3-ylmethyl)-1,3,4-oxadiazol-2-yl]-6-butyl-5-phenylpyridine-2,4-diol] was tested, and the EC50 was 10 to 100 nM. `CCCCc1nc(O)c(-c2nnc(CC(=O)N(C)C)o2)c(O)c1-c1c(OC)cccc1OC` [Example 182, 2-{5-[6-butyl-5-(2,6-dimethoxyphenyl)-2,4-dihydroxypyridin-3-yl]-1,3,4-oxadiazol-2-yl}-N,N-dimethylacetamide] gave an EC50 of 0.01 to 10 nM. Work on `CCCCc1nc(O)c(-c2nnc(Cc3ccc(Cl)c(Cl)c3)o2)c(O)c1-c1c(OC)cccc1OC` [Example 33, 6-butyl-3-{5-[(3,4-dichlorophenyl)methyl]-1,3,4-oxadiazol-2-yl}-5-(2,6-dimethoxyphenyl) pyridine-2,4-diol] yielded an EC50 of 0.01 to 10 nM.
